Experimental data from a melting point compilation (Tetko et al.; mined from patent text by program, amines drawn as free bases though some values may be those of a salt).

melting point [°C] | Structure (SMILES)
208 to 211 | Cc1ccc(C(=O)Nc2cc(N3CCOCC3)cc(C(F)(F)F)c2)cc1Nc1nccc(-c2cccnc2)n1
43 to 45.5 | CC(=O)CC(=O)c1ccc(OCCCN2CCCCC2)cc1
162 to 164 | COc1ccc(CCNC(=O)CCCCC(=O)NC2Cc3ccccc3C2)cc1OC
222 | COC1CCN(c2cc3c(cc2C#Cc2ccccc2)NC(=O)CC(c2cccc(-n4ccnc4)c2)=N3)CC1
123 to 125 | CCOC(=O)c1cc2cc(CCNS(=O)(=O)c3ccc(Cl)cc3)ccc2o1
209 to 210 | N#CN=C(Nc1cccnc1)NC(NC(=O)c1ccc(Cl)cc1)C12CC3CC(CC(C3)C1)C2 (stereo unspecified)
226 to 227 | CSc1cnc(OCCOc2ncnc(NS(=O)(=O)c3ccc(C(C)(C)C)cc3)c2-c2ccc(C(=O)O)cc2)nc1
81 to 83 | N#CC(=C1CCN(Cc2ccccc2)CC1)c1ccc(F)cc1
78 to 90 | CCCNC(=O)C(C)(C)Cc1ccc2c(c1)c(Cc1ccc(C(=O)O)cc1OC)cn2CCC
230 | Cc1ccc(S(=O)(=O)NC(=O)Nc2c(Br)cc(Br)cc2Br)cc1
138 to 139 | O=C(NCCCCCCCNC(=O)c1ccc(OC(F)F)cc1)c1ccc(OC(F)F)cc1
100 to 103 | OC(CCN1CCN(c2ccccc2)CC1)COc1ccc(Br)cc1 (stereo unspecified)
163 | CC(C)(O)C(=O)N[C@H]1CC[C@H](CCN2CCC(c3cccc4c3CCO4)CC2)CC1
118 to 119 | CCOC(=O)C1=C(C)NC(C)=C(C(=O)OCC)C1c1cc(Br)ccc1F
207 to 209 | O=C(O)C1=C(c2cc(-c3ccccc3)[nH]n2)CCCC1
197 to 198 | O=C(O)COc1ccc(Cl)cc1-c1ccc(C(=O)N2CCCC2)c(C(F)(F)F)c1
78 to 81 | C[Si](C)(C)CCCCOC(=O)CSc1cc(Oc2ccc(C(F)(F)F)cc2Cl)ccc1[N+](=O)[O-]
130 | Cc1cc(C(C)(CC(=O)O)c2ccc(O)c(C)c2)ccc1O
50 to 51 | C=CCOc1cccc(C[C@H](NC(=O)OC(C)(C)C)C(=O)OC)c1
123 to 124 | CCOC(=O)n1c2ccccc2c(=O)n1Cc1ccc([N+](=O)[O-])cc1
207 to 209 | COc1cccc(Cc2ccc3nc(N)nc(N)c3c2)c1
209 to 210 | CCOCC(C)(C)COc1ccc(-c2ccc3c(c2)C=C(C(=O)Nc2ccc(CN(C)C4CCOCC4)cc2)CCS3(=O)=O)cc1
229 to 231 | Cc1ccc(-c2ccc3c(c2)C=C(C(=O)Nc2ccc(CN(C)C4CCOCC4)cc2)CCS3(=O)=O)s1
110 to 115 | CC(C)[C@H](NC(=O)Cc1cc(F)cc(F)c1)C(=O)N[C@@H]1C(=O)Nc2ccccc2S[C@@H]1c1ccccc1
188 to 189 | C=C(c1ccc(C(C)C)cc1)c1c(C)c(NC(=O)CC(C)(C)C)c(C)c2c1OCC2

melting point [°C] | Structure (SMILES)
207 to 209 | CC(=O)c1ccc(NS(=O)(=O)c2sc3ccc(Cl)cc3c2C)c(S(C)(=O)=O)c1
148 to 150 | CC(=O)O[C@@H]1OCC[C@@H]1NC(=O)[C@H](CC(C)C)NC(=O)c1ccc(N)cc1
87 to 90 | COC=C(C(=O)OC)N(C)c1cc(-c2cccc(OC)c2)ncn1
220 to 223 | O=C(Nc1ccc2c(c1)CCC2)c1ccccc1C(c1ccc(O)cc1)c1ccc(O)cc1
178 to 182 | Cc1ccc(Sc2c(N)cc(C(=O)O)cc2S)cc1
188 to 192 | O=C(Nc1ccc(C(F)(F)F)cc1)N1CC2CSc3cc(Cl)ccc3C2=N1 (stereo unspecified)
175 | Oc1ccc2c(c1)CC(NCC(O)c1cccc(Cl)c1)CC2 (stereo unspecified)
190 to 191 | Cc1oc(-c2ccccc2)nc1COc1ccc(C(=O)O)cc1
234 to 236 | COc1ccc(-c2sc3c(c2CBr)c(=O)c(-c2cnco2)cn3Cc2ccccc2F)cc1
124 to 127 | CS(=O)(=O)OCC(C#N)(c1ccc(Cl)cc1)c1ccccc1Cl (stereo unspecified)
128 to 131 | Cc1cc(N(C)CC(=O)N2CCN(Cc3ccc4c(c3)OCO4)CC2)ccc1Oc1ccc(NC(=O)c2ccc(C(F)(F)F)cc2)cn1
217 to 222 | COC(=O)CCc1cc2cc(Cl)ccc2n1S(=O)(=O)c1ccc2nc(N)sc2c1
221 to 227 | Cn1c(COc2cccc(C(=O)O)c2)nc2ccc(Oc3cccc(OC(F)(F)F)c3)cc21
177 | COC(=O)c1ccccc1S(=O)(=O)N(c1ccn(-c2nc(C)cc(C)n2)n1)S(=O)(=O)c1ccccc1C(=O)OC
184 to 197 | CNc1nc(-c2cccnc2)nc(SC)c1C(=O)Nc1ccc(OC)cc1
117 to 118 | Cc1c(C)c2c(c(C)c1NC(=O)NCC(C)(C)CO)C(c1ccc(C(C)C)cc1)CO2 (stereo unspecified)
107 to 109 | COc1ncnc(OC)c1C(C(C)C)N(C)C(=O)Cc1ccc(Cl)cc1 (stereo unspecified)
128 to 130 | CCNC(=O)N(CC)C(=O)Nc1ccn(Cc2ccccc2Cl)c(=O)c1NC(=O)N[C@@H](CC(=O)O)c1ccc(C)cc1
> 290 | Cc1c(CC=CNC(=O)Nc2ccccc2)[nH]c(=O)c2c1ccc1nc(Nc3c(Cl)cccc3Cl)n(C)c12
124 to 125 | COc1cc(C(C)C)c2c(c1)S(=O)(=O)N(COc1cc(C(F)(F)F)nn1-c1ccc3ccccc3n1)C2=O
275 to 277 | c1ccc(CN(Cc2ccccc2)c2cccc3c2ncc2nc4n(c23)CCC4)cc1
153 to 155 | COC(=O)C(C)(C)Cc1ccc(OCc2oc(-c3ccc(C(F)(F)F)cc3)cc2C(=O)O)cc1
190 to 195 | Cc1ccc(C(=O)n2c3c(c4ccccc42)CC(C(=O)O)(C(=O)O)CC3)cc1
77 to 80 | Fc1ccc(COc2ccc(CS)cc2)cc1

More lines, now with the values behind:

Structure (SMILES) | melting point [°C]
NCC1Cc2cc(Cl)cc(-c3ccc(F)c(F)c3)c2O1 (stereo unspecified) | > 250
Cc1cc(-n2cnnn2)cc2c1NC(=O)CC2 | 271 to 272
COc1cc2c(cc1O)CCC1C2CCC2(C)C(O)C=CC12 (stereo unspecified) | 191 to 193
CCNC(=O)Nc1cn2ccc(-c3c(C)noc3C)cc2n1 | 204 to 206
CCc1c(N)c(Cl)cc(Cc2cc(Cl)c(N)c(CC)c2Cl)c1Cl | 146 to 148
C=CCNC(=O)c1c(O)c2ccc(Cl)cc2n(C)c1=N | 212 to 214
O=C(c1cccs1)c1cnc2[nH]ncc2c1NC1CC1 | 268 to 270
CC(=O)OCc1ccccc1S(N)(=O)=O | 131 to 133
CCCCCCCCCCCCCCOc1cc(C(=O)Cl)ccc1OC | 60 to 61
Fc1ccc(C(=Cc2ccccc2)C(F)(F)F)cc1 | 43 to 45
COC(=O)c1cnc2cccc(OC)c2c1 | 102
CCCCN1CCC(COC(=O)c2cc(Cl)c(N)cc2OC)C(O)C1 (stereo unspecified) | 121
O=C(O)CCC(=O)c1ccc(Cl)c(S(=O)(=O)NCc2ccccc2Cl)c1 | 158
Cc1ncc2n1-c1ccccc1N(c1ccccc1)C(=O)C2 | 217 to 220
CSC1=CNSC1(C#N)SC (stereo unspecified) | 63.5 to 64
CCN(CC)Nc1ccc(CN2OCC(C)(C)C2=O)c(Cl)c1 | 139 to 141
NS(=O)(=O)c1cc(C(=O)CBr)ccc1F | 125
CCCCCCCCCCCCCCCCNc1c(Cl)cc(C(=O)O)cc1Cl | 92 to 94
Nc1ccc2nc(-c3ccccc3)sc2c1 | 200 to 201
C=CC1(O)CCC2C3CCC4=CC(=O)CCC4C3CCC21CC (stereo unspecified) | 108 to 111
OCCc1ccc2c(c1)sc1ccc(Cl)cc12 | 98 to 100
C[C@@H]1CN(C(=O)OC(C)(C)C)C[C@H]2Cc3cc(F)c(CO)nc3N21 | 91 to 93
Oc1ccc2c(c1)C(C(Cl)(Cl)Cl)OC(C(Cl)(Cl)Cl)O2 (stereo unspecified) | 167 to 169
Cc1ccc2ccc(C#N)cc2c1 | 134 to 136
CC(C)C(C(=O)O)N(Cl)Cl (stereo unspecified) | 44 to 46
CCOP(=O)(OCC)c1cc2cc(S(N)(=O)=O)c(Cl)cc2[nH]c1=O | 288 to 290

Structure (SMILES) | melting point [°C]
CC(CO)Nc1c(F)cc2c(=O)c(C(=O)O)cn(-c3cc(N)c(F)cc3F)c2c1Cl (stereo unspecified) | 153 to 158
O=C1N=NC(=O)c2c1[nH]c1cc(Br)ccc21 | 260
COc1ccc2ccccc2c1[N+](=O)[O-] | 129 to 130
CCCCCCCCCCOc1cnc(-c2ccccc2C#CCC(C)O)nc1 (single isomer, unassigned; (-)) | 71 to 72
CC=CCC(O)C(=O)c1ccccc1 (stereo unspecified) | 83 to 85
c1ccc(CN2CCCCC2)c(CN2CCCCC2)c1 | 86 to 88
Sc1ccc2c(c1)Sc1ccc(Cl)cc1N2 | 230 to 232
COCCNS(=O)(=O)c1ccc2[nH]c(=O)c(=O)[nH]c2c1 | 264 to 267
N#Cc1cc(Br)cc(C(F)(F)F)n1 | 88.5
COc1nc(SCC(N)c2ncco2)cnc1NS(=O)(=O)c1cccc(Cl)c1Cl (stereo unspecified) | 168 to 170
Nc1ccc(Cl)cc1C(=O)NCCCn1cncn1 | 116 to 118
CCSc1scnc1C(=O)O | 158 to 159
O=c1[nH]nc2n1CCc1ccccc1C2 | 253 to 261
CC(=NC1CCCCC1)Nc1ccccc1C | 130 to 131
C=C(C)COc1ccc(C)c2c1C(=O)CC2 | 74.2 to 75.2
CCCCNC(=O)NS(=O)(=O)c1ccccc1-c1ccno1 | 110 to 113
Cn1cc(Br)c(=O)c(-c2ccccc2)c1 | 195 to 197
CC(N)c1ccc(C(=O)O)cc1 (stereo unspecified) | > 300
N=C(N)c1noc2cc([N+](=O)[O-])ccc12 | 182 to 185
O=C(O)C=Cc1ccc(-c2ccc(-c3cccs3)s2)s1 | 220 to 225
O=c1[nH][nH]c(=O)n1CCCCl | 168 to 170
CCOC(=O)CNC(=O)[C@@H]1CS[C@H](c2ccccc2O)N1C(=O)CCSC(C)=O | 130 to 131
N#Cc1ccc(NC2CCN(Cc3cc(F)cc(F)c3)CC2)nn1 | 188
COC(=O)c1nc2cc(Cl)c(OC)c(Cl)c2c(O)c1C(=O)OC | 210 to 211
CCCCCCCCC(O)C(O)CCCCCCCCCCCC(N)=O (stereo unspecified) | 153 to 154
O=C(C=Cc1ccc(Cl)cc1)NC1CCCNC(=O)C1 (stereo unspecified) | 256 to 257
